We go through 4 molecules from the NIST ThermoML archive (doi:10.1021/je700035m).

Structures are written as SMILES. ± gives the expanded uncertainty stated by the source.

Data set [1] can be described thus: molar enthalpy of vaporization or sublimation. The conditions noted are these: 298.15 K, vacuum sublimation/vaporization calorimetry.
Data set [2] can be described thus: Molar enthalpy of transition or fusion. The conditions noted are these: Crystal; DSC.
For data set [3] the following is noted: Crystal; DTA.

`Cc1ccc2c(c1)OCO2` [5-methyl-1,3-benzodioxole]: the molar enthalpy in data set [1] (Liquid) was 13.1 ± 0.55 kcal/mol.

Take `O=[N+]([O-])c1ccc2c(c1)OCO2` [1,2-(methylenedioxy)-4-nitrobenzene]: in data set [2], the “Molar enthalpy of transition or fusion” value came out at 6.74 ± 0.287 kcal/mol. Also, the molar enthalpy in data set [1] (Crystal) came to 23.3 ± 1.03 kcal/mol. Besides, the Normal melting temperature in data set [3] turned out to be 147.01 ± 0.39 °C.

As to `CC(=O)c1ccc2c(c1)OCO2` [5-oxoethyl-1,3-benzodioxole], in data set [2], the “Molar enthalpy of transition or fusion” value amounted to 6.27 ± 0.141 kcal/mol. For the same molecule, the molar enthalpy in data set [1] (Crystal) was 25 ± 1.03 kcal/mol. The Normal melting temperature in data set [3] stood at 85.72 ± 0.39 °C.

For `N#Cc1ccc2c(c1)OCO2` [3,4-methylenedioxybenzonitrile], the “Molar enthalpy of transition or fusion” value in data set [2] was determined as 4.97 ± 0.12 kcal/mol. Further, the molar enthalpy in data set [1] (Crystal) is 21.7 ± 0.43 kcal/mol. Also, the Normal melting temperature in data set [3] came out at 93.11 ± 0.39 °C.
